Measurements as given in patent US20100197789A1, “ANTI-OBESITY AGENT AND USE THEREOF” (National University Corporation Nagoya University, priority 2006, published 2010).

Legend:
Type in all cases: in vivo, mouse
[1] = tested on: lean mice; test: Food intake amount and body weight, 5 week-continuous oral administration, non-obese lean mice; conditions: lean mice (normal diet); oral 5 weeks; (±)-baclofen 5 mg/kg/day, SKF97541 0.3 mg/kg/day, 3-APPA 5 mg/kg/day
Experimental: 5 week-old male C57BL/6N mice (body weight 17 to 20 g, CLEA Japan, Inc.) were purchased and individually fed in tip cages. To the mice, normal pellet diet (CE-2) was administered under free water intake and free food intake. A body weight and a food intake amount over 24 hours were measured every day from the start of feeding. On day 3 after the start of feeding, blood was taken from an orbit after 6 hour-fasting and a blood glucose level and a blood insulin concentration were measured. The mice were divided into a control group and a baclofen treated group (10 mice per each group) so that a body weight, a 24 hour-food intake amount, a blood glucose level, and a blood insulin concentration were equal, and diet induced-obesity (DIO) was started to be induced by administration of high fat diet (High Fat Diet 32, energy fat ratio 60%, CLEA Japan, Inc.) (DIO mice). At the same time as the start of administering the high fat diet, (±)-baclofen was dissolved in drinking water and 5 week-continuous oral administration was started in a dosage of 5 mg per 1 kg of a body weight in 1 day (5 mg/kg/day). A food intake amount and a body weight were measured over time during the 5 week-administration period. (±)-baclofen (5 mg/kg/day) was orally administered also to C57BL/6N mice (lean mice) that are non-obese mice to which normal diet was administered in the same manner as described above, and a food intake amount and a body weight were measured over time.
5 week-old male C57BL/6N mice (body weight 17 to 20 g, CLEA Japan, Inc.) were purchased and individually fed in tip cages. Normal pellet diet (CE-2) was administered to the mice under free water intake and free food intake. A body weight and a food intake amount over 24 hours were measured every day from the start of feeding. On day 3 after the start of feeding, blood was taken from an orbit after 6 hour-fasting and a blood glucose level and a blood insulin concentration were measured. The mice were divided into a control group, an SKF97541 treated group and a 3-APPA treated group (10 mice per each group) so that a body weight, a 24 hour-food intake amount, a blood glucose level, and a blood insulin concentration were equal, and diet induced-obesity (DIO) was started to be induced by administration of high fat diet (High Fat Diet 32, energy fat ratio 60%, CLEA Japan, Inc.) (DIO mice). At the same time as the start of administering the high fat diet, SKF97541 (0.3 mg/kg/day) or 3-APPA (5 mg/kg/day) was dissolved in drinking water and 5 week-continuous oral administration was started. A food intake amount and a body weight were measured over time during the 5 week-administration period. SKF97541 (0.3 mg/kg/day) or 3-APPA (5 mg/kg/day) was orally administered also to C57BL/6N mice (lean mice) to which normal diet was administered in the same manner as described above, and a food intake amount and a body weight were measured over time.

[2] = tested on: db/db mice; test: Blood glucose level, HbA1c and plasma hormone concentrations after 5-week administration, db/db mice; conditions: 1.1 and 2.7 mg/dl in drinking water
Experimental: 5 week-old male C57BL/KsJ-db/db mice (db/db mice: body weight 19 to 25 g, Japan SLC, Inc.) were purchased and individually fed in tip cages. For the db/db mice, normal pellet diet (CE-2) was administered under free water intake and free food intake. A body weight and a food intake amount over 24 hours were measured every day from the start of feeding. On day 3 after the start of feeding, blood was taken from an orbit after 6 hour-fasting and a blood glucose level and a blood insulin concentration were measured. The db/db mice were divided into three groups (10 mice per each group) so that a body weight, a 24 hour-food intake amount, a blood glucose level, and a blood insulin concentration were equal, and defined to be a control group, a low concentration baclofen treated group, and a high concentration baclofen treated group. After division into the groups, from day 5 after the start of feeding, (±)-baclofen was dissolved in drinking water and 5 week-continuous oral administration to the baclofen treated groups was started. (±)-baclofen was dissolved in drinking water at a concentration of 1.1 mg/dl in the low concentration treated group and at a concentration of 2.7 mg/dl in the high concentration treated group. A food intake amount and a body weight were measured over time during the period of 5 week-administration of (±)-baclofen, blood was taken after the end of the 5-week administration, and the db/db mice were sacrificed by cervical luxation. Brains, epididymal white adipose tissues, subcutaneous white adipose tissues and brown adipose tissues were surgically removed. The brains and brown adipose tissues were frozen in dry ice and liquid nitrogen immediately after the removal and then preserved at −80° C. The epididymal white adipose tissues and subcutaneous white adipose tissues were measured in weights, and then fixed in 4% formaldehyde and preserved at 4° C.
(§1) The blood glucose level was measured by a glucose analyzer Antisense (HORIBA, Ltd.) promptly after taking blood from an orbit. HbA1c was measured by a glycohemoglobin analyzer HLC-723 GHbV (manufactured by TOSOH Corporation) after preserving blood at −80° C.
(§2) After taking blood from an orbit by using a hematocrit tube coated with heparin, blood was centrifuged at 3500 rpm at 4° C. for 15 minutes, and plasma was preserved at −80° C. The plasma concentrations of insulin, leptin and adiponectin were measured by the ELISA method (levis insulin kit (mouse): Shibayagi Co., Ltd., Morinaga Leptin assay kit: Morinaga Institute of Biological Science, Inc., Mouse/rat adiponectin ELISA kit: OTSUKA Pharmaceutical Co., Ltd.).

[3] = tested on: DIO mice; test: Fasting blood glucose, HbA1c, blood insulin, plasma leptin and adiponectin after 5-week administration, DIO mice
Experimental: as §1, §2
(±)-baclofen (5 mg/kg/day), SKF97541 (0.3 mg/kg/day) or 3-APPA (5 mg/kg/day) was orally administered to DIO mice for 5 weeks according to the above described method, and then blood was taken from an orbit after 6 hour-fasting and a blood glucose level, an HbA1c value and a blood insulin concentration were measured.
(±)-baclofen (5 mg/kg/day) was orally administered to DIO mice for 5 weeks according to the above described method, and then, blood was taken from an orbit after 6 hour-fasting, and a plasma leptin concentration and a plasma adiponectin concentration were measured. The DIO mice were sacrificed by cervical luxation after the end of the 5-week administration, and then epididymal white adipose tissues and subcutaneous white adipose tissues were surgically removed, and after measuring the weights, they were fixed in 4% formaldehyde. The epididymal white adipose tissues were cut out to prepare a section with a thickness of 8 μm and subjected to Hematoxylin-Eosin stain (H-E stain) and a form (size) of a fat cell was examined by using an image analysis system, Neurolucida (MicroBrightField Japan, Inc.).

[4] = 6 hour-fasting after 5 weeks oral, (±)-baclofen 5, SKF97541 0.3, 3-APPA 5 mg/kg/day, vs control
[5] = (±)-baclofen 5 mg/kg/day oral 5 weeks, 6 hour-fasting

NCC(CC(=O)O)c1ccc(Cl)cc1 (racemic) [(±)-baclofen, (RS)-4-amino-3-(4-chlorophenyl)butanoic acid]
body weight [1]: did not give significant effects
food intake amount [1]: did not give significant effects
blood adiponectin concentration ([2]; after 5 week-administration): Significant increases
blood leptin concentration ([2]; after 5 week-administration): Significant increases
fasting blood insulin level ([2]; after 5 week-administration): No change
HbA1c value ([2]; after administration for 5 weeks): Significant decreases
fasting blood glucose level ([2]; fasting for 6 hours, after 5 week-administration): significant suppression
fasting blood glucose level [3, 4]: significant decreases
fasting blood insulin concentration [3, 4]: significant decreases
plasma adiponectin concentration [3, 5]: significantly increased
plasma leptin concentration [3, 5]: significantly decreased
HbA1c value ([3]; after 5 weeks oral, (±)-baclofen 5, SKF97541 0.3, 3-APPA 5 mg/kg/day, vs control): significant decreases
